Test results taken from US11753407B2, “Compounds for treating spinal muscular atrophy” (PTC Therapeutics, Inc., priority 2012, dated 2023).

Tests used:
[1] = system: SMN2 minigene mRNA (SMN2-A minigene) in HEK293H cells; assay: SMN2 minigene mRNA splicing RT-qPCR assay in cultured cells; format: cell-based, human; conditions: Homo sapiens, HEK293-H; concentration increasing full length SMN2 mRNA 1.5-fold relative to vehicle-treated cells; HEK293H cells with SMN2-A minigene, 24 hours, 7-point concentration data; read-out: EC1.5x for production of full length SMN2 mRNA
Summary of the method: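 HEK293H cells stably carrying the SMN2-A minigene were treated for 24 h at 37 °C with a 7-point, 3.16-fold dilution series of compound. Multiplex RT-qPCR measured exon 7-containing minigene FL mRNA against GAPDH, expressed relative to vehicle by modified ΔΔCt; the EC1.5× is the concentration giving a 1.5-fold increase.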

[2] = system: Smn protein in SMA patient fibroblast cells (GM03813); assay: Smn protein assay in cultured cells (SMN HTRF); format: cell-based, human; conditions: SMA patient fibroblast cells, 48 hours; for maximum fold (Fold) increase of Smn protein: 7-point concentration data, fold relative to vehicle control
Summary of the method: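 SMA patient fibroblasts (5,000 cells/well, DMEM-10% FBS) were treated for 48 h at 37 °C with a 7-point, 3.16-fold dilution series in triplicate. RIPA lysates were probed by HTRF (anti-SMN d2/kryptate, overnight, room temperature), reading 665/620 nm. EC1.5× is the concentration giving 1.5-fold Smn over DMSO vehicle.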

SMILES	melting point	EC (1.5-fold increase) [1]	maximum fold (Fold) increase of Smn protein [2]	EC1.5x for Smn protein expression ([2]; 7-point concentration curve, SMN HTRF, concentration producing 1.5 times Smn protein vs DMSO vehicle control)
CC1(C)CN(c2ccc3nc(-c4ccc5c(c4)OCCO5)cc(=O)n3c2)CCN1 [Compound 36, 2-(2,3-dihydro-1,4-benzodioxin-6-yl)-7-(3,3-dimethylpiperazin-1-yl)-4H-pyrido[1,2-a]pyrimidin-4-one]	196 to 198 °C	3 to 30 µM	* (A maximum fold increase of ≤1.2 is indicated by one star (*))	–
C[C@@H]1CN(c2ccc3nc(-c4ccc5c(c4)OCCO5)cc(=O)n3c2)C[C@H](C)N1 [Compound 37, 2-(2,3-dihydro-1,4-benzodioxin-6-yl)-7-[(3R,5S)-3,5-dimethylpiperazin-1-yl]-4H-pyrido[1,2-a]pyrimidin-4-one]	247 to 250 °C	1 to 3 µM	* (A maximum fold increase of ≤1.2 is indicated by one star (*))	–
O=c1cc(-c2ccc3c(c2)OCCO3)nc2ccc(N3CCCNCC3)cn12 [Compound 38, 7-(1,4-diazepan-1-yl)-2-(2,3-dihydro-1,4-benzodioxin-6-yl)-4H-pyrido[1,2-a]pyrimidin-4-one]	180 to 182 °C	3 to 30 µM	* (A maximum fold increase of ≤1.2 is indicated by one star (*))	–
CN1CCCN(c2ccc3nc(-c4ccc5c(c4)OCCO5)cc(=O)n3c2)CC1 [Compound 39, 2-(2,3-dihydro-1,4-benzodioxin-6-yl)-7-(4-methyl-1,4-diazepan-1-yl)-4H-pyrido[1,2-a]pyrimidin-4-one]	150 to 152 °C	3 to 30 µM	* (A maximum fold increase of ≤1.2 is indicated by one star (*))	–
COc1ccc(-c2cc(=O)n3cc(N4CCN(C)CC4)cc(F)c3n2)cc1OC [Compound 40, 2-(3,4-dimethoxyphenyl)-9-fluoro-7-(4-methylpiperazin-1-yl)-4H-pyrido[1,2-a]pyrimidin-4-one]	183 to 185 °C	3 to 30 µM	* (A maximum fold increase of ≤1.2 is indicated by one star (*))	–
O=c1cc(-c2cccc(C(F)(F)F)c2)nc2ccc(N3CCNCC3)cn12 [Compound 43, 7-(piperazin-1-yl)-2-[3-(trifluoromethyl)phenyl]-4H-pyrido[1,2-a]pyrimidin-4-one]	199 to 207 °C	0.1 to 0.3 µM	*** (a fold increase between >1.35 and ≤1.5 is indicated by three stars (***))	** (an EC1.5× between >1 μM and ≤3 μM is indicated by two stars (**))
O=c1cc(-c2ccc(C(F)(F)F)cc2)nc2ccc(N3CCNCC3)cn12 [Compound 44, 7-(piperazin-1-yl)-2-[4-(trifluoromethyl)phenyl]-4H-pyrido[1,2-a]pyrimidin-4-one]	285 °C (dec.)	1 to 3 µM	* (A maximum fold increase of ≤1.2 is indicated by one star (*))	–
O=c1cc(-c2ccc([N+](=O)[O-])cc2)nc2ccc(N3CCNCC3)cn12 [Compound 47, 2-(4-nitrophenyl)-7-(piperazin-1-yl)-4H-pyrido[1,2-a]pyrimidin-4-one]	237 to 242 °C	1 to 3 µM	*** (a fold increase between >1.35 and ≤1.5 is indicated by three stars (***))	–
COc1ccc(-c2cc(=O)n3cc(NC4CCNCC4)cc(F)c3n2)cc1OC [Compound 48, 2-(3,4-dimethoxyphenyl)-9-fluoro-7-(piperidin-4-ylamino)-4H-pyrido[1,2-a]pyrimidin-4-one]	224 to 226 °C	3 to 30 µM	* (A maximum fold increase of ≤1.2 is indicated by one star (*))	–
CN(C)c1ccc(-c2cc(=O)n3cc(N4CCNCC4)cc(F)c3n2)cc1 [Compound 49, 2-[4-(dimethylamino)phenyl]-9-fluoro-7-(piperazin-1-yl)-4H-pyrido[1,2-a]pyrimidin-4-one]	216 to 218 °C	3 to 30 µM	* (A maximum fold increase of ≤1.2 is indicated by one star (*))	–

More lines, main results first:

melting point	SMILES	EC (1.5-fold increase) [1]	maximum fold (Fold) increase of Smn protein [2]	EC1.5x for Smn protein expression ([2]; 7-point concentration curve, SMN HTRF, concentration producing 1.5 times Smn protein vs DMSO vehicle control)
151 to 153 °C	O=c1cc(-c2ccccc2)nc2ccc(N3CCNCC3)cn12 [Compound 33, 2-phenyl-7-(piperazin-1-yl)-4H-pyrido[1,2-a]pyrimidin-4-one]	1 to 3 µM	* (A maximum fold increase of ≤1.2 is indicated by one star (*))	–
170 to 173 °C	C[C@H]1CN(c2ccc3nc(-c4ccccc4)cc(=O)n3c2)CCN1 [Compound 34, 7-[(3S)-3-methylpiperazin-1-yl]-2-phenyl-4H-pyrido[1,2-a]pyrimidin-4-one]	1 to 3 µM	** (a fold increase between >1.2 and ≤1.35 is indicated by two stars (**))	–
212 to 214 °C	C[C@@H]1CN(c2ccc3nc(-c4ccc5c(c4)OCCO5)cc(=O)n3c2)CCN1 [Compound 35, 2-(2,3-dihydro-1,4-benzodioxin-6-yl)-7-[(3R)-3-methylpiperazin-1-yl]-4H-pyrido[1,2-a]pyrimidin-4-one]	3 to 30 µM	* (A maximum fold increase of ≤1.2 is indicated by one star (*))	–
185 to 189 °C	O=c1cc(-c2cccc(Cl)c2)nc2ccc(N3CCNCC3)cn12 [Compound 41, 2-(3-chlorophenyl)-7-(piperazin-1-yl)-4H-pyrido[1,2-a]pyrimidin-4-one]	0.3 to 1 µM	*** (a fold increase between >1.35 and ≤1.5 is indicated by three stars (***))	–
207 to 212 °C	O=c1cc(-c2ccc(Cl)cc2)nc2ccc(N3CCNCC3)cn12 [Compound 42, 2-(4-chlorophenyl)-7-(piperazin-1-yl)-4H-pyrido[1,2-a]pyrimidin-4-one]	1 to 3 µM	* (A maximum fold increase of ≤1.2 is indicated by one star (*))	–
183 to 187 °C	Cc1cccc(-c2cc(=O)n3cc(N4CCNCC4)ccc3n2)c1 [Compound 45, 2-(3-methylphenyl)-7-(piperazin-1-yl)-4H-pyrido[1,2-a]pyrimidin-4-one]	3 to 30 µM	** (a fold increase between >1.2 and ≤1.35 is indicated by two stars (**))	–
214 to 218 °C	O=c1cc(-c2ccc(F)cc2)nc2ccc(N3CCNCC3)cn12 [Compound 46, 2-(4-fluorophenyl)-7-(piperazin-1-yl)-4H-pyrido[1,2-a]pyrimidin-4-one]	1 to 3 µM	*** (a fold increase between >1.35 and ≤1.5 is indicated by three stars (***))	–
205 to 207 °C	C[C@@H]1CN(c2cc(F)c3nc(-c4ccc(N(C)C)cc4)cc(=O)n3c2)CCN1 [Compound 50, 2-[4-(dimethylamino)phenyl]-9-fluoro-7-[(3R)-3-methylpiperazin-1-yl]-4H-pyrido[1,2-a]pyrimidin-4-one]	3 to 30 µM	** (a fold increase between >1.2 and ≤1.35 is indicated by two stars (**))	–
